Assay results from patent US20070010429A1, “Phospholipid formulations and uses thereof in lung disease detection and treatment” (The Hospital For Sick Children, priority 2005, published 2007).
Where two headings read alike, the source gives them in different places.

Experiments:
[1] = freeze fracture analysis; cited from earlier work
neonatal rats [2] = conditions: treated rats; day 10 control rats 9.0±0.4 microns
Description: BALF samples, containing 50 nM of PC, were extracted and lipids were dried under nitrogen. Lipid samples were then reconstituted in 1 ml of saline at 37° C. followed by bath sonication. Following one freeze-thaw cycle the vesicle size was determined by dynamic light scattering (21) using a Malvern Mastersizer X (Malvern Instruments Ltd., Worcestershire, United Kingdom).
To even further characterize this relationship, light scattering analysis was performed on liposomes formed from total lipids extracted from BALF.

neonatal rats [3] = system: neonatal rats
Source text: Timed-pregnant female Wistar rats and C57/B16 mice were obtained from Charles River (St. Constant, Qc, Canada). All animal protocols were in accordance with Canadian Counsel of Animal Care guidelines and were approved by the Animal Care and Use Committee of the Hospital for Sick Children. Developmental profile: At fetal day 19 and 22 (term=23 days) the pregnant rat was anesthetized and the pups delivered by cesarean section, while postpartum rodents were removed from their mother directly before sacrifice. Dexamethasone treatment: Newborn Wistar rats were injected daily for 4 days with dexamethasone (Sabex, Boucherville, Quebec, Canada) diluted in isotonic saline starting at postnatal day 1 according to previously described protocols (17). Hyperoxia exposure: The oxygen treatment was performed by housing the rat pups with their mother in chambers containing either 21% or 60% oxygen, starting at day 1 until day of lavage (i.e. postnatal day 4, 7, 10 or 14) (18).
After sacrificing the animals, a needle (blunted tip) was inserted through a tracheostomy and the lungs were lavaged with a buffer composed of phosphate-buffered saline augmented with 0.05 mg/ml of 70 kDa dextran-FITC [Molecular probes, Burlington, ON, Canada]. The inert fluorescent marker was included to determine lavage recovery (see FIG. 4e).
BALF samples were spiked with 1 μg of deuterated dipalmitoyl-PC (16:0/16:0PC) (Avanti polar lipids, Alabaster Ala., USA) as an internal standard, and then extracted (19). Lipids were analyzed using an API4000 mass spectrometer [MDS SCIEX, Concord, Ontario, Canada) (20).
To determine the nature of this relationship, BALF samples were examined from two rat models of diminished alveolarization. The two models employed were postnatal exposure to either dexamethasone or 60% oxygen. Postnatal administration of dexamethasone to rats has been described to result in a reduced alveolarization (17, 39-41). In the present study, a high dose, short-term treatment with dexamethasone was used to induce reduced alveolarization in the animal.
Neonatal hyperoxia of mice and rats may also be used to induce diminished alveolarization (18, 42-44).

newborn Wistar rats = conditions: high dose, short-term dexamethasone, age of 14 days; cited from earlier work

SMILES: CCCCCCCCCCCCCCCC(=O)OC[C@H](COP(=O)([O-])OCC[N+](C)(C)C)OC(=O)CCCCCCCCCCCCCCC [16:0/16:0, Dipalmitoyl Phosphatidylcholine]
- liposome radius compared to palmitoylmyristoyl-PC (16:0/14:0PC) liposomes [1]: three-fold greater radius

SMILES: O=O [60% oxygen, oxygen]
- average particle size of liposomes formed from BALF lipids (neonatal rats [2]): 12.6±0.6 microns
- total PC in BALF (neonatal rats [3]; 60% oxygen from day 1, postnatal day 10): significant reduction
- total PC in BALF (neonatal rats [3]; 60% oxygen from day 1, postnatal day 14): no longer significantly different
- palmitoylmyristoyl-PC (16:0/14:0PC) in BALF (neonatal rats [3]; after 14 days of 60% oxygen exposure, only PC species reduced): significantly reduced
- dipalmitoyl-PC (16:0/16:0PC) content in BALF (neonatal rats [3]; rats exposed to 60% oxygen): reduced
- palmitoylmyristoyl-PC (16:0/14:0PC) content in BALF (neonatal rats [3]; rats exposed to 60% oxygen): reduced
- palmitoylpalmitoleoyl-PC (16:0/16:1PC) content in BALF (neonatal rats [3]; rats exposed to 60% oxygen): reduced

SMILES: C[C@@H]1C[C@H]2[C@@H]3CCC4=CC(=O)C=C[C@]4(C)[C@@]3(F)[C@@H](O)C[C@]2(C)[C@@]1(O)C(=O)CO [dexamethasone, reference compound]
- average particle size of liposomes formed from BALF lipids (neonatal rats [2]): 13.2±0.7 microns
- parenchymal complexity / lung alveoli compared to controls (newborn Wistar rats): significant decrease in parenchymal complexity
